The test system of data set [1] is doxorubicin (DOX)-treated C57Bl/6J female mice. The experiment in a line: Anthracycline (doxorubicin)-induced cardiotoxicity model, echocardiography and organ weights. As to conditions: chronic DOX, cumulative dose 20 mg/kg body weight IP over 4 weeks, vs saline. Type of data set: in vivo. As to the method:
Cardiac toxicity experiments: Eight-week-old C57Bl/6J female mice were purchased from Envigo (Gannat, France). Following 2 weeks of acclimatization, mice were randomized (1:1) to receive either mouse monoclonal anti-ACBP-neutralizing antibody (5 mg/kg body weight, injected intraperitoneally once per week) or mouse isotype IgG (negative control; 5 mg/kg body weight). Each group was further randomized (1:1) to receive a weekly intraperitoneal injection of saline or doxorubicin (5 mg/kg body weight; cumulative dose of 20 mg/kg body weight over 4 weeks) (Sigma, #MKCM8540). Of note, anti-ACBP was always administered 24 hours prior to doxorubicin injection. All mice used in this study were housed in a temperature-controlled environment with 12 h light/dark cycles and ad libitum access to food and water.
Echocardiography. Mice were lightly anesthetized (5% for induction; 1.5% isoflurane for maintenance) and body temperature was kept at 37° C. using a temperature-controlled heating platform. […] Ejection fraction was determined to assess systolic function, while diastolic function was evaluated using the ratio between peak early-filling velocity of transmitral flow (E) and the corresponding mitral valve annulus velocity (e′) determined using pulsed-wave and tissue Doppler imaging, respectively. […]

The subject of a further data set is p21. The experiment in a line: Immunostaining of senescence marker p21 in cardiac sections of doxorubicin-treated mice. Type of data set: in vivo. The conditions noted are these: DOX cumulative 20 mg/kg over 4 weeks; vs saline; FIGS. 2A-2B. As to the method:
Immunohistochemistry of p21: On the day of euthanasia, left ventricles were briefly rinsed with PBS and fixed for 16-24 h in a 4% formaldehyde solution (F8775, Sigma, diluted in PBS, pH=7.4). After fixation, tissues were transferred to 70% ethanol until inclusion in paraffin. Paraffin-embedded tissue were cut to 2-3 μm sections, air dried and let to dry completely at 60° C. overnight. Cell Conditioning 1 buffer (64/457,5001, Roche) was used for antigen retrieval, and casein (ref: 760-219, Roche) was used as blocking agent. The antibody directed against p21 (clone HUGO 291H/B5, CNIO) was diluted 1:50 in EnVision FLEX Antibody Diluent (K800621, Dako-Agilent). Staining was performed on the Ventana discovery XT platform for 60 minutes (ready-to-use). […] The specificity of the staining was assessed in each organ by using rat IgG isotype control (6-001-F, R&D Systems) as primary antibody.
Quantification of the p21 staining was done on the QuPath analysis software after blinding the samples names. […] Non-cardiomyocytes regions were excluded from the area of analysis and, after color deconvolution, a threshold was applied to automatically quantify the p21+ cardiomyocytes area. The average value in the 10 regions of interest was plotted for each animal, and analyzed by two-way ANOVA to determine the effect of doxorubicin treatment, ACBP/DBI neutralization, and their interaction.

Structures are written as SMILES.

Take `COc1cccc2c1C(=O)c1c(O)c3c(c(O)c1C2=O)C[C@@](O)(C(=O)CO)C[C@@H]3O[C@H]1C[C@H](N)[C@H](O)[C@H](C)O1` [DOX, doxorubicin]: the “left ventricular ejection fraction” value in data set [1] (FIG. 1B) is listed as “clearly reduced”. In data set [1] (FIG. 1C), the ventricular dilation result is “causing ventricular dilation”. In addition, the “p21 staining in cardiomyocytes” value in the data set on p21 is “increased the presence of p21 staining”.

Source of the values: patent US20260001949A1, “NEUTRALIZATION OF ACYL-COA BINDING PROTEIN FOR THE TREATMENT OF CARDIAC DYSFUNCTION” (INSERM (INSTITUT NATIONAL DE LA SANTÉ ET DE LA RECHERCHE …, priority 2022, published 2026).
